Read-outs that look alike come from different tables or passages of the source.

The results in this text go back to US20170008888A1 (KYORIN PHARMACEUTICAL CO., LTD., priority 2014, published 2017).

Experiment [1] concerns human PBMCs. Briefly: Human PBMC TNF-α response to endotoxin (ELISA). The experiment is classed as cell-based. As to conditions: 0.1 μg/ml LPS 16 h, read-out: EC50 for the inhibition of the human PBMC TNF-α response to endotoxin, ave. ± S.D. In short, it runs like this:
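PBMCs at 2e6 cells/ml in RPMI 1640 with 10% charcoal-dextran-treated FBS were pre-treated 1 h at 37 °C with compound (4-point 1:5 dilution from 10 μM). Stimulation with 0.1 μg/ml E. coli 0111:B4 LPS for 16 h; TNF-α measured by ELISA (A450) in 25-fold diluted supernatant.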
Background: ELISA stands for enzyme-linked immunosorbent assay.

Experiment [2] addresses T1, ACK (Homo sapiens, UniProt Q07912).
T1 construct: screened for activity against several kinases in Jurkat cells; endogenous in cells; host or cells: Jurkat cell lysate
Put plainly: Probe-based (AX9989) kinase profiling in Jurkat lysate: ACK. The format is binding. In short, it runs like this:
(§1)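 Percent inhibition was derived from reduced LC/MS fragment intensities of probe-labeled peptides relative to compound-free controls. Before labeling with 5 μM AX9989, Mn2+-supplemented (20 mM) Jurkat lysate was exposed to compound for 15 min at room temperature.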

The test system of experiment [3] is ABL or ARG. Put plainly: Probe-based (AX9989) kinase profiling in Jurkat lysate: ABL or ARG. The experiment is classed as binding. As to conditions: for Kinase inhibition % at indicated screening concentration: ABL or ARG: screening concentration 1.0 μM. Put shortly:
as §1

Experiment [4] addresses T2, JAK1 (Homo sapiens, UniProt P23458).
T2 construct: screened for activity against several kinases in Jurkat cells; endogenous in cells; host or cells: Jurkat cell lysate
Briefly: Probe-based (AX9989) kinase profiling in Jurkat lysate: JAK1. The format is binding. In short, it runs like this:
as §1

In experiment [5] the target is T3, BRD4 bromodomain domain I [BRD4(1)] (Homo sapiens, UniProt O60885).
T3 construct: BRD4 bromodomain domain I [BRD4(1)]; purchased Cayman Chemicals
Briefly: BRD4 bromodomain domain 1 inhibition assay (TR-FRET). The note with it: screening concentration 10 μM. The format is binding. In short, it runs like this: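 0.5% DMSO, in triplicate, using Cayman BRD4(1) TR-FRET protocol with slight modification. 670/620 nm ratio normalized to 10 μM JQ1, with DMSO control set as 0% inhibition.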

In experiment [6] the test system is AurB or AurC. Briefly: Probe-based (AX9989) kinase profiling in Jurkat lysate: AurB or AurC. The format is binding. As to conditions: for Kinase inhibition % at indicated screening concentration: AurB or AurC: screening concentration 1.0 μM. Put shortly:
as §1

Experiment [7] deals with T4, recombinant human ERK5 catalytic domain (Homo sapiens, UniProt Q13164).
T4 construct: Recombinant human ERK5 catalytic domain radiometric assays; purchased Reaction Biology, Corp (Malvern, Pa.), which ran the assay as a service
Briefly: Recombinant human ERK5 radiometric (HotSpot) assay. The note with it: 10 μM ATP, 20 μM myelin basic protein substrate; read-out: rhERK5 IC50. The experiment is classed as biochemical. As for the experimental part:
In this example, potency of the compounds in recombinant human ERK5 was assayed.
Recombinant human ERK5 catalytic domain radiometric assays were performed by Reaction Biology, Corp (Malvern, Pa.). The HotSpot radiometric assay is based on conventional filter-binding assays (Nature Biotechnology (2011) 29: 1039-1045). Compounds were tested at 20 μM down by ⅓ in a 10 point serial dilution series. Briefly, [γ-33P]-ATP was used as the tracer along with 10 μM cold ATP to label ERK5 in the presence of 20 μM myelin basic protein substrate.

The mark [8] stands for this setting: screening concentration 1.0 μM, read-out: Kinase inhibition % at indicated screening concentration: ACK.
Setting [9] is: screening concentration 1.0 μM, read-out: Kinase inhibition % at indicated screening concentration: JAK1.
Where [10] appears, read: screening concentration 1 μM, read-out: ACK Inhibition % at indicated screening concentration.
[11] abbreviates: screening concentration 1 μM, read-out: JAK1 Inhibition % at indicated screening concentration.

T1 sequence (Q07912 whole entry): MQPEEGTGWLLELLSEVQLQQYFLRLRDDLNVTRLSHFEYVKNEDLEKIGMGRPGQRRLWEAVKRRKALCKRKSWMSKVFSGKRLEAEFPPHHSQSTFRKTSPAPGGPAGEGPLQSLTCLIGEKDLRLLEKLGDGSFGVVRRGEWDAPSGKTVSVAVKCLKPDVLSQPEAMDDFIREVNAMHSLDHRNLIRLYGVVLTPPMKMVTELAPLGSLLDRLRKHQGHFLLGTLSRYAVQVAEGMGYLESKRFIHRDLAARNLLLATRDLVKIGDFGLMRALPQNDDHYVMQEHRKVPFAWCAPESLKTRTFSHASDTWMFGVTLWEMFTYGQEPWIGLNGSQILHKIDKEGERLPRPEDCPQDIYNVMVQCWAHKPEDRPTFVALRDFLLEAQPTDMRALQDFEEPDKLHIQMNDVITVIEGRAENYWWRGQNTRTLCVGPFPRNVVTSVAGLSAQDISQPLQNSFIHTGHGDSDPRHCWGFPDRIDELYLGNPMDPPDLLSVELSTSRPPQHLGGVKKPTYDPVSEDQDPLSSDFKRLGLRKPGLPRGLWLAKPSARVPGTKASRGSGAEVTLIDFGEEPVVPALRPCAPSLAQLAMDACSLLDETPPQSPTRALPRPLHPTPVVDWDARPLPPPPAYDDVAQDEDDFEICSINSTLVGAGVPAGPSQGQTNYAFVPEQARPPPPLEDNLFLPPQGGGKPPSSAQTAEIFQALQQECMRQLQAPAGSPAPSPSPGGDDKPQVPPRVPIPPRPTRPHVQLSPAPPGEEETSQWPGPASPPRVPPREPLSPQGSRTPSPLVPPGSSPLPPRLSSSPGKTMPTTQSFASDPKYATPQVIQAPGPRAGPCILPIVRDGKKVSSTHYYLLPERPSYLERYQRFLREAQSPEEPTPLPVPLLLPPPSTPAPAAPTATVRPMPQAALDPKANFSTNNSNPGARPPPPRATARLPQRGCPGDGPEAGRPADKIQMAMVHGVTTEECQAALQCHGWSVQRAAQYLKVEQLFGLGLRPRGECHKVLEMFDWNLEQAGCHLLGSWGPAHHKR
T2 sequence (P23458 whole entry): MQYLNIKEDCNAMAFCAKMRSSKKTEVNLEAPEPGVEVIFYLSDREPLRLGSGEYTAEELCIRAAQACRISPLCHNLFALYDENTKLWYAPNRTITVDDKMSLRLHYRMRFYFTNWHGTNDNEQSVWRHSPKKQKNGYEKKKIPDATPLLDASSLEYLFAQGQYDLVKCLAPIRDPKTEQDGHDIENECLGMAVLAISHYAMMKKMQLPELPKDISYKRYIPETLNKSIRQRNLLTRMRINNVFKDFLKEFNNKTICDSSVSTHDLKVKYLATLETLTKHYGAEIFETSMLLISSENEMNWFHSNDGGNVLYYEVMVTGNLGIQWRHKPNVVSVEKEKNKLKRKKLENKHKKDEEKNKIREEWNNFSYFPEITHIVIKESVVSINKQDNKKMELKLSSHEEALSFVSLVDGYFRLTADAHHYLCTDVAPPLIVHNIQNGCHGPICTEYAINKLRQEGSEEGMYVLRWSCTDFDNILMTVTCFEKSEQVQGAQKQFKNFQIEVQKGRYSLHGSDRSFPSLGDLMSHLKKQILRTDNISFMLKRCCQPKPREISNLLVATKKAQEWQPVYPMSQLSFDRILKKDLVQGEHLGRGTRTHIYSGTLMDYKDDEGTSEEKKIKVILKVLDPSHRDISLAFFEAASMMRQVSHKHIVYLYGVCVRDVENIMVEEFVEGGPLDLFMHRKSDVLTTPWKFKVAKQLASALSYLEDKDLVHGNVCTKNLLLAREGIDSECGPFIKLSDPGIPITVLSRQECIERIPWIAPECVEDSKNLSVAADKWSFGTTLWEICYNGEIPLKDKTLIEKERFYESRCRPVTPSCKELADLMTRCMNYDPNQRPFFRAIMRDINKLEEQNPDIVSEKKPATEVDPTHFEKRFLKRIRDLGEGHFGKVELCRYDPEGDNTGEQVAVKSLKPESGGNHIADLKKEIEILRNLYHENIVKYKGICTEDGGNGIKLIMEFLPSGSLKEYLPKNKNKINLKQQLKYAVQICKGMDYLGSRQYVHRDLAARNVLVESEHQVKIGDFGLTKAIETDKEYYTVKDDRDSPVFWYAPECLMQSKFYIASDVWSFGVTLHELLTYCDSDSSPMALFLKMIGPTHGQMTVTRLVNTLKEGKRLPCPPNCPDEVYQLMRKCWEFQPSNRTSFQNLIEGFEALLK
T4 sequence (Q13164 55-347 limits assumed): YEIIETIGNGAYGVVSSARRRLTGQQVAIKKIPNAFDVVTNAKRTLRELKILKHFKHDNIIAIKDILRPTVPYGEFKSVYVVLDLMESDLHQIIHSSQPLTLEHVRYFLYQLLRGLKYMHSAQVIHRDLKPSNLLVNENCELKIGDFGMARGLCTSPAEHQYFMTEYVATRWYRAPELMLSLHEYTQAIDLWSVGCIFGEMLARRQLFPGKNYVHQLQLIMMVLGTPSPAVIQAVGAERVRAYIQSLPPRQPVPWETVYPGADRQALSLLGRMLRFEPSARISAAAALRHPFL

In the case of `CCOc1cc(C(=O)N2CC[C@@H](N(C)C)C2)ccc1Nc1cc2c(cn1)N(C)C(=O)c1ccccc1N2C` [Compound 115], the EC50 in experiment [1] turned out to be 840 ± 530 nM. Besides, the inhibition at 1 µM in experiment [2] (setting [8]) and in experiment [4] (setting [9]) was ≤ 35% each time. Further, the “Kinase inhibition % at indicated screening concentration: ABL or ARG” value (“Kinase inhibition % … ABL or ARG” below) in experiment [3] was “E (E is ≦35%)”. In addition, the inhibition at 10 µM in experiment [5] was 70 to 85%. In addition, the “Kinase inhibition % at indicated screening concentration: AurB or AurC” value (“Kinase inhibition % … AurB or AurC” below) in experiment [6] was “E (E is ≦35%)”.
In the case of `CCOc1cc(C(=O)N2CCC(CN3CCOCC3)CC2)ccc1Nc1cc2c(cn1)N(C)C(=O)c1ccccc1N2C` [Compound 120], the EC50 in experiment [1] stood at 860 nM. The inhibition at 1 µM in experiment [2] (setting [8]) and in experiment [4] (setting [9]) was ≤ 35% throughout. Further, the “Kinase inhibition % … ABL or ARG” value in experiment [3] is reported as “E (E is ≦35%)”. Moreover, the inhibition at 10 µM in experiment [5] is > 85%. Moreover, the “Kinase inhibition % … AurB or AurC” value in experiment [6] is reported as “E (E is ≦35%)”.
As to `CCOc1cc(C(=O)N(CC)CCN(CC)CC)ccc1Nc1cc2c(cn1)N(C)C(=O)c1ccccc1N2C` [Compound 122], in experiment [1], the EC50 turned out to be 1130 ± 380 nM. For the same compound, the inhibition at 1 µM in experiment [2] (setting [8]) and in experiment [4] (setting [9]) was ≤ 35% each time. Also, in experiment [3], the “Kinase inhibition % … ABL or ARG” value is on record as “E (E is ≦35%)”. Further, the inhibition at 10 µM in experiment [5] lay within 70 to 85%. The “Kinase inhibition % … AurB or AurC” value in experiment [6] is “E (E is ≦35%)”.
In the case of `CCOc1cc(C(=O)N2CCC(NC(C)C)C2)ccc1Nc1cc2c(cn1)N(C)C(=O)c1ccccc1N2C` (stereo not drawn) [Compound T4], the EC50 in experiment [1] is 490 nM. For the same compound, the inhibition at 1 µM in experiment [2] (setting [10]) and in experiment [4] (setting [11]) was ≤ 35% each time. Further, the “ABL or ARG Inhibition % at indicated screening concentration” value (from here on “ABL or ARG Inhibition %”) in experiment [3] (screening concentration 1 μM) is “E (E is ≦35%)”. Moreover, the inhibition at 10 µM in experiment [5] was > 85%. Besides, the “AurB or AurC Inhibition % at indicated screening concentration” value (“AurB or AurC Inhibition %” below) in experiment [6] (screening concentration 1 μM) is “E (E is ≦35%)”.
As for `CCOc1cc(C(=O)N2C[C@H]3CCN[C@H]3C2)ccc1Nc1cc2c(cn1)N(C)C(=O)c1ccccc1N2C` [Compound T5], the EC50 in experiment [1] came to 840 nM. For the same compound, the inhibition at 1 µM in experiment [2] (setting [10]) and in experiment [4] (setting [11]) was ≤ 35% each time. In experiment [3] (screening concentration 1 μM), the “ABL or ARG Inhibition %” value was “E (E is ≦35%)”. For the same compound, the inhibition at 10 µM in experiment [5] is 70 to 85%. Also, the “AurB or AurC Inhibition %” value in experiment [6] (screening concentration 1 μM) is recorded as “E (E is ≦35%)”.
With `CCOc1cc(C(=O)N2CCC(N3CCN(C)CC3)CC2)ccc1Nc1cc2c(cn1)N(C)C(C(F)(F)F)c1ccccc1N2C` (stereo not drawn) [Compound T47], the EC50 in experiment [1] was found to be 3970 nM. Moreover, the inhibition at 10 µM was ≤ 35% in experiment [2] (screening concentration 10 μM, read-out: ACK Inhibition % at indicated screening concentration) and ≤ 35% in experiment [4] (screening concentration 10 μM, read-out: JAK1 Inhibition % at indicated screening concentration). Moreover, the “ABL or ARG Inhibition %” value in experiment [3] (screening concentration 10 μM) is reported as “E (E is ≦35%)”. In addition, the IC50 in experiment [7] was > 200 nM. For the same compound, in experiment [6] (screening concentration 10 μM), the “AurB or AurC Inhibition %” value is given as “E (E is ≦35%)”.
With `CCOc1cc(C(=O)N(C)[C@H]2CC[C@H](O)CC2)ccc1Nc1cc2c(cn1)N(C)C(=O)c1ccccc1N2C` [Compound T64], in experiment [1], the EC50 is 620 nM. Moreover, the inhibition at 1 µM in experiment [2] (setting [10]) and in experiment [4] (setting [11]) was ≤ 35% each time. The “ABL or ARG Inhibition %” value in experiment [3] (screening concentration 1 μM) is given as “E (E is ≦35%)”. Besides, the inhibition at 10 µM in experiment [5] lay within 70 to 85%. Also, in experiment [6] (screening concentration 1 μM), the “AurB or AurC Inhibition %” value was “E (E is ≦35%)”.
Consider `CN1CCC(N2CCN(C(=O)c3ccc(Nc4cc5c(cn4)N(C)C(=O)c4ccccc4N5C)c(F)c3)CC2)CC1` [Compound T70], for which the EC50 in experiment [1] came to 2090 nM. Besides, the inhibition at 1 µM in experiment [2] (setting [10]) and in experiment [4] (setting [11]) was ≤ 35% in each case. The “ABL or ARG Inhibition %” value in experiment [3] (screening concentration 1 μM) is recorded as “E (E is ≦35%)”. In addition, in experiment [5], the inhibition at 10 µM was < 70%. In experiment [6] (screening concentration 1 μM), the “AurB or AurC Inhibition %” value is listed as “E (E is ≦35%)”.
In the case of `CN1CCC(N2CCN(C(=O)c3ccc(Nc4cc5c(cn4)N(C)C(=O)c4ccccc4N5C)c(OC(F)F)c3)CC2)CC1` [Compound T76], in experiment [1], the EC50 worked out at 1110 nM. The inhibition at 1 µM in experiment [2] (setting [10]) and in experiment [4] (setting [11]) was ≤ 35% throughout. Moreover, the “ABL or ARG Inhibition %” value in experiment [3] (screening concentration 1 μM) is “E (E is ≦35%)”. Further, the inhibition at 10 µM in experiment [5] was 70 to 85%. Also, the “AurB or AurC Inhibition %” value in experiment [6] (screening concentration 1 μM) is on record as “E (E is ≦35%)”.

In general, EC50 refers to the concentration that produces a half-maximal response. By IC50 is commonly meant the midpoint of a concentration-inhibition curve.
